Values quoted from earlier work in patent publication US20230000758A1, “METHOD FOR PREVENTING SKIN AGING COMPRISING KOREAN MINT EXTRACT” (COSMAX NBT, INC., priority 2021, published 2023).

Test system: catalase
Conditions: lipopolysaccharide-stimulated mouse lung tissues

COc1ccc(-c2cc(=O)c3c(O)cc(O[C@@H]4O[C@H](CO[C@@H]5O[C@@H](C)[C@H](O)[C@@H](O)[C@H]5O)[C@@H](O)[C@H](O)[C@H]4O)cc3o2)cc1 [linarin]
expression of the anti-oxidant enzyme catalase: markedly increased
